# Assay results published in ChEMBL document CHEMBL1201862, “PubChem BioAssay data set” (2004).
#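 Grown in 96-well plates, cells were treated for 48 hours with each compound at five concentrations. Insufficient inhibition: endpoint recorded as highest concentration tested. GI50 is the concentration that inhibits growth by half.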 Activity calls are given as the source filed them. Cut-off read from the data, not from the text of the source: active = GI50 up to about 1.1 µM and inactive = higher.
# Assays:
# Assay in all cases: NCI tumour cell line growth inhibition, 48 h
# CCRF-CEM = system: CCRF-CEM
# NCI-H23 = system: NCI-H23
# SW-620 = system: SW-620
# HOP-92 = system: HOP-92
# HCC 2998 = system: HCC 2998
# SK-MEL-28 = system: SK-MEL-28
# SN12C = system: SN12C
# RXF 393 = system: RXF 393
# SNB-75 = system: SNB-75
# OVCAR-8 = system: OVCAR-8
# 786-0 = system: 786-0
# T47D = system: T47D
# MCF7 = system: MCF7
# OVCAR-4 = system: OVCAR-4
# PC-3 = system: PC-3
# HOP-62 = system: HOP-62
# Hs-578T = system: Hs-578T
# OVCAR-3 = system: OVCAR-3
# CAKI-1 = system: CAKI-1
# OVCAR-5 = system: OVCAR-5
# NCI-H226 = system: NCI-H226
# MDA-N = system: MDA-N
# BT-549 = system: BT-549
# ACHN = system: ACHN
# HT-29 = system: HT-29
# SF-268 = system: SF-268
# SR = system: SR
# SK-MEL-5 = system: SK-MEL-5
# SK-MEL-2 = system: SK-MEL-2
# DU-145 = system: DU-145
# MDA-MB-231 = system: MDA-MB-231
# UO-31 = system: UO-31
# MOLT-4 = system: MOLT-4
# IGROV-1 = system: IGROV-1
# Malme-3M = system: Malme-3M
# HCT-15 = system: HCT-15
# UACC-257 = system: UACC-257
# KM12 = system: KM12
# M14 = system: M14
# SK-OV-3 = system: SK-OV-3
# EKVX = system: EKVX
# HCT-116 = system: HCT-116
# NCI-H460 = system: NCI-H460
# NCI-H522 = system: NCI-H522
# UACC-62 = system: UACC-62
# COLO 205 = system: COLO 205
# SF-295 = system: SF-295
# SNB-19 = system: SNB-19
# A549 = system: A549
# TK-10 = system: TK-10
# RPMI-8226 = system: RPMI-8226
# MDA-MB-435 = system: MDA-MB-435
# K562 = system: K562
# NCI/ADR-RES = system: NCI/ADR-RES
# SF-539 = system: SF-539
# LOX IMVI = system: LOX IMVI
# U-251 = system: U-251
# A498 = system: A498
# HL-60 = system: HL-60
structure (smiles),measurement,setting,value
OC(CC1CCCCN1)c1ccc2c(c1)oc1ccccc12 (stereo not drawn),GI50,CCRF-CEM,33.3 µM (inactive)
same,GI50,NCI-H23,> 100 µM (inactive)
same,GI50,SW-620,> 100 µM (inactive)
same,GI50,HOP-92,48.3 µM (inactive)
same,GI50,HCC 2998,30.4 µM (inactive)
same,GI50,SK-MEL-28,34 µM (inactive)
same,GI50,SN12C,> 100 µM (inactive)
same,GI50,RXF 393,57.3 µM (inactive)
same,GI50,SNB-75,39.6 µM (inactive)
same,GI50,OVCAR-8,84.1 µM (inactive)
same,GI50,786-0,> 100 µM (inactive)
same,GI50,T47D,> 100 µM (inactive)
same,GI50,MCF7,83 µM (inactive)
same,GI50,OVCAR-4,94.2 µM (inactive)
same,GI50,PC-3,71 µM (inactive)
same,GI50,HOP-62,91.2 µM (inactive)
same,GI50,Hs-578T,87.7 µM (inactive)
same,GI50,OVCAR-3,> 100 µM (inactive)
same,GI50,CAKI-1,52.8 µM (inactive)
same,GI50,OVCAR-5,50.1 µM (inactive)
same,GI50,NCI-H226,74.5 µM (inactive)
same,GI50,MDA-N,40.8 µM (inactive)
same,GI50,BT-549,> 100 µM (inactive)
same,GI50,ACHN,> 100 µM (inactive)
same,GI50,HT-29,28.2 µM (inactive)
same,GI50,SF-268,> 100 µM (inactive)
same,GI50,SR,67.3 µM (inactive)
same,GI50,SK-MEL-5,17.8 µM (inactive)
same,GI50,SK-MEL-2,34 µM (inactive)
same,GI50,DU-145,> 100 µM (inactive)
same,GI50,MDA-MB-231,> 100 µM (inactive)
same,GI50,UO-31,37.2 µM (inactive)
same,GI50,MOLT-4,28.2 µM (inactive)
same,GI50,IGROV-1,55.6 µM (inactive)
same,GI50,Malme-3M,38.9 µM (inactive)
same,GI50,HCT-15,52.2 µM
same,GI50,UACC-257,31 µM (inactive)
same,GI50,KM12,> 100 µM (inactive)
same,GI50,M14,18.8 µM (inactive)
same,GI50,SK-OV-3,> 100 µM (inactive)
same,GI50,EKVX,49 µM (inactive)
same,GI50,HCT-116,85.3 µM (inactive)
same,GI50,NCI-H460,43.6 µM (inactive)
same,GI50,NCI-H522,79.8 µM (inactive)
same,GI50,UACC-62,22.6 µM (inactive)
same,GI50,COLO 205,19.1 µM (inactive)
same,GI50,SF-295,99.1 µM (inactive)
same,GI50,SNB-19,> 100 µM (inactive)
same,GI50,A549,> 100 µM (inactive)
same,GI50,TK-10,72.1 µM (inactive)
same,GI50,RPMI-8226,46.1 µM (inactive)
same,GI50,MDA-MB-435,42.7 µM (inactive)
same,GI50,K562,39.5 µM (inactive)
same,GI50,NCI/ADR-RES,> 100 µM (inactive)
same,GI50,SF-539,46.1 µM (inactive)
same,GI50,LOX IMVI,56 µM (inactive)
same,GI50,U-251,> 100 µM (inactive)
same,GI50,A498,23.4 µM (inactive)
same,GI50,HL-60,> 100 µM (inactive)
N#C/C(=C\Nc1ccccn1)C(=O)C1CC1,GI50,CCRF-CEM,76.9 µM (inactive)
same,GI50,NCI-H23,> 100 µM (inactive)
same,GI50,SW-620,> 100 µM (inactive)
same,GI50,HOP-92,> 100 µM (inactive)
same,GI50,HCC 2998,> 100 µM (inactive)
same,GI50,SK-MEL-28,> 100 µM (inactive)
same,GI50,SN12C,> 100 µM (inactive)
same,GI50,RXF 393,> 100 µM (inactive)
same,GI50,SNB-75,> 100 µM (inactive)
same,GI50,OVCAR-8,> 100 µM (inactive)
same,GI50,786-0,> 100 µM (inactive)
same,GI50,T47D,> 100 µM (inactive)
same,GI50,MCF7,> 100 µM (inactive)
same,GI50,OVCAR-4,> 100 µM (inactive)
same,GI50,PC-3,> 100 µM (inactive)
same,GI50,HOP-62,> 100 µM (inactive)
same,GI50,Hs-578T,> 100 µM (inactive)
same,GI50,OVCAR-3,> 100 µM (inactive)
same,GI50,CAKI-1,> 100 µM (inactive)
same,GI50,OVCAR-5,> 100 µM (inactive)
same,GI50,NCI-H226,> 100 µM (inactive)
same,GI50,MDA-N,> 100 µM (inactive)
same,GI50,BT-549,> 100 µM (inactive)
same,GI50,ACHN,> 100 µM (inactive)
same,GI50,HT-29,> 100 µM (inactive)
same,GI50,SF-268,> 100 µM (inactive)
same,GI50,SR,> 100 µM (inactive)
same,GI50,SK-MEL-5,> 100 µM (inactive)
same,GI50,SK-MEL-2,> 100 µM (inactive)
same,GI50,DU-145,> 100 µM (inactive)
same,GI50,MDA-MB-231,> 100 µM (inactive)
same,GI50,UO-31,> 100 µM (inactive)
same,GI50,MOLT-4,> 100 µM (inactive)
same,GI50,IGROV-1,> 100 µM (inactive)
same,GI50,Malme-3M,> 100 µM (inactive)
same,GI50,HCT-15,> 100 µM
same,GI50,UACC-257,> 100 µM (inactive)
same,GI50,KM12,> 100 µM (inactive)
same,GI50,M14,> 100 µM (inactive)
same,GI50,SK-OV-3,> 100 µM (inactive)
same,GI50,EKVX,> 100 µM (inactive)
same,GI50,HCT-116,> 100 µM (inactive)
same,GI50,NCI-H460,> 100 µM (inactive)
same,GI50,NCI-H522,> 100 µM (inactive)
same,GI50,UACC-62,> 100 µM (inactive)
same,GI50,COLO 205,> 100 µM (inactive)
same,GI50,SF-295,> 100 µM (inactive)
same,GI50,SNB-19,> 100 µM (inactive)
same,GI50,A549,> 100 µM (inactive)
same,GI50,TK-10,> 100 µM (inactive)
same,GI50,RPMI-8226,> 100 µM (inactive)
same,GI50,MDA-MB-435,> 100 µM (inactive)
same,GI50,K562,> 100 µM (inactive)
same,GI50,NCI/ADR-RES,> 100 µM (inactive)
same,GI50,SF-539,> 100 µM (inactive)
same,GI50,LOX IMVI,> 100 µM (inactive)
same,GI50,U-251,> 100 µM (inactive)
same,GI50,A498,> 100 µM (inactive)
same,GI50,HL-60,> 100 µM (inactive)
